Structures can show the parent of a compound that is named as a salt.

The test system of the first experiment is Acinetobacter baumannii ATCC17961. Put plainly: Antimicrobial susceptibility testing: 90% growth inhibitory concentration (IC90) determination in Iso-Sensitest broth, OD600 growth. In kind it is cell-based. The following applies: Acinetobacter baumannii, ATCC17961, 16 h, strain ATCC 17961, OD600 growth over 16 h, read-out: A. baumannii ATCC 17961 IC90. The essentials: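 OD600 read every 20 min for 16 h at 35±2° C; inhibition taken in log phase to derive IC90. Twofold, 10-point dilutions (e.g. 50–0.097 μM final), inoculum ~5×10^(5) CFU/ml.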
Usually IC90 stands for the concentration at which the effect reaches the 90% level. `O=C(c1ccc(Nc2nccn3c(-c4c[nH]nc4C(F)(F)F)cnc23)cc1Cl)N1CCN(C(=O)[C@H]2CCCN2)CC1` [Example 198, [2-chloro-4-[[3-[3-(trifluoromethyl)-1H-pyrazol-4-yl]imidazo[1,2-a]pyrazin-8-yl]amino]phenyl]-[4-[(2R)-pyrrolidine-2-carbonyl]piperazin-1-yl]methanone]: the IC90 was found to be 216 nM.

Consider `NCCNC(=O)CNC(=O)c1ccc(Nc2nccn3c(-c4cn(CCF)nc4C(F)(F)F)cnc23)cc1Cl` [Example 8, N-[2-(2-aminoethylamino)-2-oxoethyl]-2-chloro-4-[[3-[1-(2-fluoroethyl)-3-(trifluoromethyl)pyrazol-4-yl]imidazo[1,2-a]pyrazin-8-yl]amino]benzamide formate], for which the 90% effect concentration (IC90) is 484 nM.

Take `Cc1cc(Nc2nccn3c(-c4cn(CC#N)nc4C(F)(F)F)cnc23)ccc1C(=O)NCC(=O)N1CC[C@@H](N)C1` [Example 686, N-[2-[(3R)-3-aminopyrrolidin-1-yl]-2-oxo-ethyl]-4-[[3-[1-(cyanomethyl)-3-(trifluoromethyl)pyrazol-4-yl]imidazo[1,2-a]pyrazin-8-yl]amino]-2-methyl-benzamide]: the IC90 turned out to be 343 nM.

In the case of `Cc1cc(Nc2nccn3c(-c4c[nH]nc4C(F)(F)F)cnc23)ccc1C(=O)N1CCNCC1` [Example 480, [2-methyl-4-[[3-[3-(trifluoromethyl)-1H-pyrazol-4-yl]imidazo[1,2-a]pyrazin-8-yl]amino]phenyl]-piperazin-1-ylmethanone], the IC90 worked out at 1840 nM.

As to `N#CCNC(=O)c1ccc(Nc2nccn3c(-c4cn(CC#N)nc4C(F)(F)F)cnc23)cc1Cl` [Example 231, 2-chloro-N-(cyanomethyl)-4-[[3-[1-(cyanomethyl)-3-(trifluoromethyl)pyrazol-4-yl]imidazo[1,2-a]pyrazin-8-yl]amino]benzamide], the IC90 worked out at 102 nM.

In the case of `CNC(=O)c1ccc(Nc2nccn3c(-c4cn(Cc5ccn(CC#N)n5)nc4C(F)(F)F)cnc23)cc1Cl` [Example 590, 2-chloro-4-((3-(1-((1-(cyanomethyl)-1H-pyrazol-3-yl)methyl)-3-(trifluoromethyl)-1H-pyrazol-4-yl)imidazo [1,2-a]pyrazin-8-yl)amino)-N-methylbenzamide], the IC90 worked out at 375 nM.

As to `CCc1cc(Nc2nccn3c(-c4cn(CC#N)nc4C(F)(F)F)cnc23)ccc1C(=O)NCC(=O)NCCN` [Example 765, N-[2-(2-aminoethylamino)-2-oxo-ethyl]-4-[[3-[1-(cyanomethyl)-3-(trifluoromethyl)pyrazol-4-yl]imidazo[1,2-a]pyrazin-8-yl]amino]-2-ethyl-benzamide], the IC90 was 895 nM.

Still in this experiment, the particulars now being: strain ATCC 17961, OD600 growth over 16 h, read-out: A. baumannii ATCC 17961 IC90.
Consider `NCCCC[C@H](N)C(=O)NCCCNC(=O)c1ccc(Nc2nccn3c(-c4c[nH]nc4C(F)(F)F)cnc23)cc1Cl` [Example 345, 2-chloro-N-[3-[[(2S)-2,6-diaminohexanoyl]amino]propyl]-4-[[3-[3-(trifluoromethyl)-1H-pyrazol-4-yl]imidazo[1,2-a]pyrazin-8-yl]amino]benzamide foramate], for which the IC90 amounted to 1220 nM.

As to `N#CCn1cc(-c2cnc3c(Nc4ccc(C(=O)NCCO)c(Cl)c4)nccn23)c(C(F)(F)F)n1` [Example 234, 2-chloro-4-[[3-[1-(cyanomethyl)-3-(trifluoromethyl)pyrazol-4-yl]imidazo[1,2-a]pyrazin-8-yl]amino]-N-(2-hydroxyethyl) benzamide], the IC90 is 189 nM.

As for `COCCn1cc(-c2cnc3c(Nc4ccc(C(=O)N5CCN(C(=O)NCCN)CC5)c(Cl)c4)nccn23)c(C(F)(F)F)n1` [Example 290, N-(2-aminoethyl)-4-[2-chloro-4-[[3-[1-(2-methoxyethyl)-3-(trifluoromethyl)pyrazol-4-yl]imidazo[1,2-a]pyrazin-8-yl]amino]benzoyl] piperazine-1-carboxamide formate], the IC90 turned out to be 330 nM.

Source of the values: patent US20230203043A1, “NOVEL IMIDAZOPYRAZINE DERIVATIVES” (Hoffmann-La Roche Inc., priority 2020, published 2023).
